Series [1] deals with lipid peroxide formation in rat brain tissue homogenate. Nature of the series: Activity to inhibit lipid peroxide formation in rat brain tissue homogenate (TBA method). The class given is biochemical, rat (male SD). The settings on record: 10^-5 M; n = 3, mean; 5% brain homogenate, pH 7.4, 37° C., 1 hour. Here is the method: Activity to inhibit lipid peroxide formation in rat brain tissue homogenate: Male SD rats (12-week-old) were subjected to exsanguination under anesthesia with pentobarbital, then the brain was excised. The brain tissue was homogenized in a phosphate buffer (pH 7.4) to prepare a 5% homogenate. After incubation of the homogenate at 37° C. for 1 hour, the amount of lipid peroxides formed therein was determined by the thiobarbituric acid (TBA) method in accordance with the report of Ohkawa et al. on Analytical Biochemistry, 95, 351, (1979). The test drug was added to the 5% homogenate before incubation so as to make the final concentration to be 10^-5 M. The activity to inhibit the formation of lipid peroxide was judged by comparing the amount of the lipid peroxide in the treated group with that of the reference group to which was added the solvent (DMSO), and shown by % inhibition.

Series [2] has as its system rat hearts. Nature of the series: Activity to inhibit occurrence of ventricular arrhythmia during coronary artery occlusion-reperfusion in rat hearts. The class given is in vivo, rat (male SD). Also on record: Ventricular fibrillation, incidence / Ventricular tachycardia, incidence: unit not given here. The settings on record: for Ventricular fibrillation, incidence / Ventricular tachycardia, incidence: (10 min.) after reperfusion; for Ventricular fibrillation, incidence / Ventricular tachycardia, incidence / Ventricular fibrillation, duration / Ventricular tachycardia, duration: average ±SEM; for Mortality: killed animals/test animals; for mortality due to VF (in words) / occurrence of arrhythmia (in words) / period of time during which arrhythmia lasted (in words) / frequency of occasional PVCs (in words): 10 mg/kg; for frequency of occasional PVCs (in words): vs vehicle around 10 times/minute; for effect on arrhythmia (in words): oral. The source says: Activity to inhibit occurrence of ventricular arrhythmia during coronary artery occlusion-reperfusion in rat hearts
Male SD rats (9- to 13-week old, 250 to 370 g) were used. The animals were subjected to thoractonomy under artificial respiration while anesthesia was maintained by administering pentobarbital. […] By recording standard limb lead II electrocardiograms, occurrence of ventricular arrhythmia was examined. […]
Incidences of ventricular fibrillation and ventricular tachycardia are shown by the percentage of the number of animals presenting the symptoms relative to the number of animals subjected to the test, and the duration of the symptoms was shown by average ±SEM in seconds. Extrasystole is shown by the number of systole/min., and the mortality is shown by the percentage of the number of killed animals relative to the number of test animals.

Series [3] deals with mice. Nature of the series: Acute toxicity in mice. It counts as in vivo. Conditions: for sedation and ptosis: six mice per group. Here is the method:
Male Crj-ICR mice (4-week-old, 21 to 26 g) were used. The animals, divided into groups, each consisting of six mice, were administered orally with compounds (4-b, 4-1) at the dosages of 300 and 1000 mg/kg, respectively. Then, each group was housed in a cage and observed for 24 hours.
The test drugs were suspended in gum arabic and administered at a volume of 0.1 ml/10 g.

Experimental findings from patent publication US4925868A, “4-Hydroxy-3-pyrrolin-2-ones and treatment of circulatory disorders therewith” (Takeda Chemical Industries, Ltd., priority 1986, dated 1990) are described below.

As to `CCCCCCCCCCCCOc1ccc(C2=C(O)CN(CCc3ccccc3)C2=O)cc1` [Compound 4-g], in series [1], the “Inhibition rate of lipid peroxide formation” value (from here on “Inhibition rate”) worked out at 100%.

As for `CCCCCCCCCCCCOc1ccc(C2=C(O)CN(Cc3c(C)c(OC)c(C)c(C)c3OC)C2=O)cc1` [Compound 4-m], the “Inhibition rate” value in series [1] is listed as 100%.

As to `CCCCCCCCCCCCOc1ccc(C2=C(O)CN(CC(C)C)C2=O)cc1` [Compound 4-c], the “Inhibition rate” value in series [1] was found to be 100%.

In the case of `CCCCCCCCCCCCOc1ccc(C2=C(O)CN(Cc3cc(OC)c(OC)c(OC)c3)C2=O)cc1` [Compound 4-l], the “Inhibition rate” value in series [1] was determined as 96.7%. In addition, in series [2] (3 mg/Kg), the Extrasystole came out at 5.4 ± 1.1 times/min; the “Ventricular fibrillation, incidence” value turned out to be 0.8 ± 0.4; the “Ventricular tachycardia, incidence” value is given as 3.5 ± 0.8; the “Ventricular fibrillation, duration” value worked out at 1.7 ± 1.2 s. For the same compound, in series [2] (3 mg/Kg), the “Ventricular tachycardia, duration” value came to 7.1 ± 2.2 s and the Mortality is given as 0/8. For the same compound, in series [2], the “mortality due to VF (in words)” value is “low”, the “occurrence of arrhythmia (in words)” value is recorded as “suppressed remarkably”, the “period of time during which arrhythmia lasted (in words)” value is “shortened” and the “frequency of occasional PVCs (in words)” value is “significantly less”. Also, the deaths result in series [3] (mouse, in vivo) was “no test animals of either group were killed”. For the same compound, in series [3] (oral, 300 and 1000 mg/kg), the “time to recovery from sedation and ptosis” value is at most 3 h; the sedation and ptosis result was “observed on half number of the test animals”.

`CCCCCCCCCCCCOc1ccc(C2=C(O)CN(Cc3ccccc3)C2=O)cc1` [Compound 4-f]: the “Inhibition rate” value in series [1] is 75.5%.

Take `CCCCCCCCCCCCOc1ccc(C2=C(O)CN(c3ccccc3)C2=O)cc1` [Compound 4-e]: the “Inhibition rate” value in series [1] was 100%.

Take Vitamin E [reference compound]: the “Inhibition rate” value in series [1] was 44.9%. Besides, in series [2] (50 mg/kg), the Extrasystole stood at 7.0 ± 4.1 times/min; the “Ventricular fibrillation, incidence” value stood at 2.0 ± 0.7; the “Ventricular tachycardia, incidence” value is 3.7 ± 1.5; the “Ventricular fibrillation, duration” value was determined as 43.4 ± 36.0 s. Moreover, in series [2] (50 mg/kg), the “Ventricular tachycardia, duration” value was 22.3 ± 9.7 s; the Mortality is listed as 1/10; the “effect on arrhythmia (in words)” value is reported as “no significant effect”.

For `O=C1O[C@H]([C@@H](O)CO)C(O)=C1O` [Vitamin C, reference compound], the “Inhibition rate” value in series [1] is -71.6%. In series [2] (50 mg/kg), the Extrasystole came to 11.0 ± 0.8 times/min; the “Ventricular fibrillation, incidence” value is given as 5.4 ± 0.8; the “Ventricular tachycardia, incidence” value was determined as 9.5 ± 1.8; the “Ventricular fibrillation, duration” value is 74.1 ± 36.0 s. Further, in series [2] (50 mg/kg), the “Ventricular tachycardia, duration” value is 12.0 ± 2.9 s; the Mortality was 1/12; the “effect on arrhythmia (in words)” value was “no significant effect”.

In the case of `CCCCCCCCCCCCCCOc1ccc(C2=C(O)CN(C)C2=O)cc1` [Compound 4-a], the “Inhibition rate” value in series [1] worked out at 97.9%.

For `CCCCCCCCCCCCOc1ccc(C2=C(O)CN(Cc3ccsc3)C2=O)cc1` [Compound 4-i], the “Inhibition rate” value in series [1] was determined as 89.4%.

On to `CCCCCCCCCCCCOc1ccc(C2=C(O)CN(Cc3ccc(Cl)cc3)C2=O)cc1` [Compound 4-n], for which the “Inhibition rate” value in series [1] stood at 100%.

`CCCCCCCCCCCCOc1ccc(C2=C(O)CN(C)C2=O)cc1` [Compound 4-b, N-methyl-3-(4-dodecyloxyphenyl)-4-hydroxy-3-pyrrolin-2-one]: the “Inhibition rate” value in series [1] turned out to be 97.9%. In addition, in series [3] (oral, 300 and 1000 mg/kg), the “time to recovery from sedation and ptosis” value was at most 3 h; the sedation and ptosis result is “observed on half number of the test animals”. Further, the deaths entry in series [3] (oral, 300 and 1000 mg/kg, 24-hour observation) is recorded as “no test animals of either group were killed”.

For the compound `CCCCCCCCCCCCOc1ccc(C2=C(O)CN(Cc3ccc(C(=O)O)cc3)C2=O)cc1` [Compound 4-k], in series [1], the “Inhibition rate” value is listed as 63.8%.

With `CCCCCCCCCCCCCCCCCCOC1=C(O)CN(Cc2cc(OC)c(OC)c(OC)c2)C1=O` [Compound 4-p], in series [2] (10 mg/Kg), the Extrasystole was determined as 3.3 ± 0.7 times/min; the “Ventricular fibrillation, incidence” value is given as 0.9 ± 0.3; the “Ventricular tachycardia, incidence” value was 4.1 ± 1.2; the “Ventricular fibrillation, duration” value turned out to be 2.1 ± 1.3 s. Moreover, in series [2] (10 mg/Kg), the “Ventricular tachycardia, duration” value came out at 7.3 ± 2.4 s and the Mortality is 0/9. Further, in series [2], the “mortality due to VF (in words)” value was “low”, the “occurrence of arrhythmia (in words)” value is “suppressed remarkably”, the “period of time during which arrhythmia lasted (in words)” value was “shortened” and the “frequency of occasional PVCs (in words)” value is “significantly less”.

With `CCCCCCCCCCCCOc1ccc(C2=C(O)CN(CCCc3ccccc3)C2=O)cc1` [Compound 4-h], in series [1], the “Inhibition rate” value worked out at 100%.

For `CCCCCCCCCCCCOc1ccc(C2=C(O)CN(Cc3ccc(C(=O)OC)cc3)C2=O)cc1` [Compound 4-j], in series [1], the “Inhibition rate” value is 52.8%.

In the case of `CCCCCCCCCCCCOc1ccc(C2=C(O)CN(CCCCCCCCCCCC)C2=O)cc1` [Compound 4-d], the “Inhibition rate” value in series [1] amounted to 100%.
